Consider 14 molecules from ChEMBL document CHEMBL1201862, “PubChem BioAssay data set” (2004).

Among the test systems are M14; A498; SF-268; NCI-H460; A549; HT-29; LXFL 529; UO-31; Malme-3M; ACHN; CCRF-CEM; IGROV-1; SK-MEL-28; HOP-62; T47D; MCF7; MDA-N; MDA-MB-435; PC-3; Hs-578T.
What all share (test): inhibition of tumour cell growth, NCI panel, 48 h

Structures are written as SMILES.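 Each compound was tested at five concentrations against cells in 96-well plates for 48 hours. The concentration for 50% growth inhibition is given as GI50.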 Activity calls are given as the source filed them. No stated cut-off is given here; in the data, active = GI50 up to about 1.1 µM and inactive = higher.

Consider `CCCCCCCCCCCCCCCC(=O)OCC1OC(n2cc(F)c(=O)[nH]c2=O)C(NC(=O)OCc2ccccc2)C(O)C1O` (centres undefined), for which the GI50 in the test on M14 was 17 µM (inactive); in the test on A498, 18.8 µM (inactive); with SF-268, 23.4 µM (inactive); in the test with NCI-H460 it was 19.2 µM (inactive); with A549 it was 18.9 µM (inactive); with HT-29, 17.8 µM (inactive). Further, the GI50 with LXFL 529 was 16.7 µM (inactive); with UO-31, 19.5 µM (inactive); with Malme-3M, 2.79 µM (inactive); in the test with ACHN it was 34.1 µM (inactive); in the test with CCRF-CEM it was 11 µM (inactive); with IGROV-1, 20.9 µM (inactive).

Regarding `CCOC(=O)C1(C)CCC(C(=O)OC)C1=O` (centres undefined), the GI50 with M14 was > 100 µM (inactive); in the test with A498, > 100 µM (inactive); with SF-268 it was > 100 µM (inactive); in the test on NCI-H460 it was 15.3 µM (inactive); in the test on A549, > 100 µM (inactive); in the test with HT-29 it was 65.5 µM (inactive). The GI50 with LXFL 529, in the test with SK-MEL-28, in the test on UO-31, in the test on HOP-62, with Malme-3M and in the test with ACHN was > 100 µM (inactive) each time. The GI50 is 21.9 µM (inactive) in the test with CCRF-CEM and > 100 µM (inactive) in the test on IGROV-1.

Take `O=C1C2Cc3ccccc3CN2C(=O)N1CCN1CCCC1` (centres undefined): the GI50 in the test with M14, in the test on A498, in the test on SF-268, in the test with NCI-H460, with A549 and in the test on LXFL 529 was > 100 µM (inactive) in each case. Besides, the GI50 in the test on SK-MEL-28, with UO-31, in the test with HOP-62, in the test on Malme-3M, with ACHN and with CCRF-CEM was > 100 µM (inactive) throughout. Further, the GI50 in the test with IGROV-1 was > 100 µM (inactive).

As for `COc1cc(/C=C/C(=N\NC(=O)c2ccccc2)c2sc(Nc3ccc(Cl)c(Cl)c3)nc2C)ccc1O`, the GI50 in the test on M14 was 31 µM (inactive); in the test on SF-268 it was 38.6 µM (inactive); with NCI-H460, 31.3 µM (inactive); in the test with A549, 31.7 µM (inactive); in the test with HT-29, 28.9 µM (inactive); in the test with LXFL 529 it was 31.6 µM (inactive). Moreover, the GI50 with SK-MEL-28 was 40.6 µM (inactive); with UO-31, 28.8 µM (inactive); in the test with HOP-62, 38.4 µM (inactive); in the test with Malme-3M, 29.4 µM (inactive); with ACHN, 26.8 µM (inactive); in the test with CCRF-CEM, 27.9 µM (inactive). Besides, the GI50 with IGROV-1 is 35.6 µM (inactive).

On to `O=c1/c(=C/c2ccc3c(c2)OCO3)sc2nnc(-c3ccco3)n12`, for which the GI50 with M14, in the test with A498, in the test with SF-268, with NCI-H460, in the test on A549 and in the test with LXFL 529 was > 100 µM (inactive) in each case. The GI50 in the test with SK-MEL-28, in the test with UO-31, with HOP-62, with Malme-3M, in the test with ACHN and in the test with CCRF-CEM was > 100 µM (inactive) each time. For the same molecule, the GI50 in the test with IGROV-1 was > 100 µM (inactive).

For `CSc1nc(C)cc(=O)n1C1OC(COC(C)=O)C(OC(C)=O)C(OC(C)=O)C1OC(C)=O` (centres undefined), the GI50 with M14, with A498, with SF-268, with NCI-H460, with A549 and in the test on HT-29 was > 100 µM (inactive) each time. For the same molecule, the GI50 in the test with LXFL 529 was > 100 µM (inactive); with SK-MEL-28, > 100 µM (inactive); with UO-31 it was > 100 µM (inactive); in the test with HOP-62 it was > 10 µM (inactive); in the test with Malme-3M, > 100 µM (inactive); in the test on ACHN, > 100 µM (inactive). Moreover, the GI50 in the test with CCRF-CEM and in the test on IGROV-1 was > 100 µM (inactive) in each case.

As to `C=CCCC(O)c1cc(C)c(O)c(C)c1` (centres undefined), the GI50 with M14, with A498, in the test on SF-268, with NCI-H460, in the test on A549 and in the test on LXFL 529 was > 100 µM (inactive) in each case. The GI50 in the test with SK-MEL-28, with UO-31, in the test on HOP-62, in the test on Malme-3M, in the test with ACHN and with CCRF-CEM was > 100 µM (inactive) each time. Moreover, in the test on IGROV-1, the GI50 was > 100 µM (inactive).

For the molecule `C[C@]12CC=CC(=O)[C@@]1(C)CCC(=O)C2`, the GI50 with M14, in the test with A498, in the test on SF-268, with NCI-H460, in the test with A549 and in the test with HT-29 was > 100 µM (inactive) in each case. Moreover, the GI50 in the test with LXFL 529, with SK-MEL-28, in the test on UO-31, with HOP-62, with Malme-3M and with ACHN was > 100 µM (inactive) in each case. The GI50 with CCRF-CEM and in the test with IGROV-1 was > 100 µM (inactive) throughout.

As to `COc1ccc(C[P+]2(c3ccccc3)CCCCC2)cc1.O=[N+]([O-])c1ccc(C[P+]2(c3ccccc3)CCCCC2)cc1.[O-][Cl+3]([O-])([O-])[O-].[O-][Cl+3]([O-])([O-])[O-]`, the GI50 with M14 is 66.2 µM (inactive); in the test on A498, > 100 µM (inactive); with SF-268, > 100 µM (inactive); with NCI-H460 it was 71.6 µM (inactive); with A549, > 100 µM (inactive); in the test with HT-29 it was 10 µM (inactive). Also, the GI50 in the test with LXFL 529 was 16.4 µM (inactive); in the test on SK-MEL-28 it was 42.2 µM (inactive); with UO-31, > 100 µM (inactive); in the test on HOP-62, 77.1 µM (inactive); with Malme-3M, 19.3 µM (inactive); in the test on ACHN it was > 100 µM (inactive). Besides, the results for the GI50 in the test with CCRF-CEM and in the test with IGROV-1 were > 100 µM (inactive) and 47.6 µM (inactive), respectively.

As for `Cc1n(-c2ccccc2)c2c([n+]1Cc1ccc([N+](=O)[O-])cc1)C(=O)c1ccccc1C2=O`, the GI50 is 2.59 µM (inactive) in the test with M14; 1.64 µM (inactive) in the test on T47D; 12.2 µM (inactive) in the test on A498; 1.75 µM (inactive) in the test on SF-268; 3.78 µM (inactive) in the test with NCI-H460; 1.37 µM (inactive) with MCF7. The GI50 in the test on A549 was 3.56 µM (inactive); in the test on HT-29, 2.38 µM (inactive); in the test on LXFL 529, 1.42 µM (inactive); in the test on SK-MEL-28 it was 1.81 µM (inactive); in the test with UO-31, 13.1 µM (inactive); in the test with HOP-62 it was 6.5 µM (inactive). Besides, the GI50 in the test with MDA-N was 1.77 µM (inactive); in the test on Malme-3M, 1.67 µM (inactive); in the test on MDA-MB-435 it was 1.74 µM (inactive); in the test on ACHN, 3.72 µM (inactive); in the test on PC-3, 2.25 µM (inactive); with CCRF-CEM, 1.82 µM (inactive). Also, the GI50 is 0.855 µM (active) in the test on IGROV-1 and 1.78 µM (inactive) with Hs-578T.

Consider `Clc1ccc2c(c1)C1C(CO2)C(c2ccccc2)=NN1c1ccccc1` (centres undefined), for which the GI50 in the test with A498 was > 100 µM (inactive); in the test on SF-268, 42.5 µM (inactive); with NCI-H460, 36.2 µM (inactive); with A549, 32.7 µM (inactive); with HT-29 it was 76.9 µM (inactive); with LXFL 529, 29.6 µM (inactive). Moreover, the GI50 in the test with SK-MEL-28 is 54.1 µM (inactive); in the test on UO-31, 15 µM (inactive); with HOP-62 it was 37 µM (inactive); in the test with Malme-3M, 43 µM (inactive); in the test on ACHN, 35.2 µM (inactive); in the test with CCRF-CEM, 24.9 µM (inactive). The GI50 in the test on IGROV-1 was 22.9 µM (inactive).

In the case of `CN1/C(=N\c2ccccc2)S/C1=N/c1ccccc1`, the GI50 in the test on M14 was 72.1 µM (inactive); in the test with A498, 96.4 µM (inactive); in the test on SF-268, > 100 µM (inactive); in the test with NCI-H460, > 100 µM (inactive); with A549, 86.1 µM (inactive); with HT-29, 55.5 µM (inactive). Moreover, the GI50 with LXFL 529 is 82.2 µM (inactive); in the test with SK-MEL-28, > 100 µM (inactive); with UO-31 it was > 100 µM (inactive); in the test on HOP-62, > 100 µM (inactive); in the test on Malme-3M, 23.1 µM (inactive); with ACHN, 70.6 µM (inactive). Besides, the GI50 is 69.3 µM (inactive) in the test with CCRF-CEM and > 100 µM (inactive) with IGROV-1.

For the molecule `CCCCCCCCCC1CC(=O)Oc2cccc(O)c21` (centres undefined), the GI50 in the test on M14 was 22.7 µM (inactive); in the test on A498 it was 22.1 µM (inactive); in the test on SF-268, 30.3 µM (inactive); in the test on NCI-H460, 9.91 µM (inactive); in the test with A549, 11.5 µM (inactive); in the test on HT-29 it was 24.1 µM (inactive). The GI50 in the test with LXFL 529 is 24.4 µM (inactive); with SK-MEL-28 it was 29.6 µM (inactive); in the test on UO-31 it was 19.5 µM (inactive); in the test with HOP-62, 34.3 µM (inactive); in the test with Malme-3M, 18.7 µM (inactive); with ACHN it was 30.3 µM (inactive). In addition, the GI50 in the test on CCRF-CEM was 27.4 µM (inactive); in the test with IGROV-1 it was 20.9 µM (inactive).

Take `O=C1CCC(=O)N1Cc1ccccc1/N=[N+](\[O-])c1ccccc1CN1C(=O)CCC1=O`: the GI50 in the test on M14, in the test with SF-268, with NCI-H460, in the test with A549, in the test with HT-29 and in the test with LXFL 529 was > 100 µM (inactive) each time. In addition, the GI50 in the test with SK-MEL-28, in the test with UO-31, with HOP-62, in the test on Malme-3M, in the test with ACHN and in the test on CCRF-CEM was > 100 µM (inactive) throughout. For the same molecule, the GI50 in the test on IGROV-1 was > 100 µM (inactive).
